Laboratory results: article PMC3914206

Columns and labels:
Type in all cases: binding
Set-up in all cases: KINOMEscan: ABL1(F317L)-phosphorylated / KINOMEscan: ABL1(H396P)-nonphosphorylated / KINOMEscan: ABL1(H396P)-phosphorylated / KINOMEscan: ABL1(M351T)-phosphorylated / KINOMEscan: ABL1(T315I)-phosphorylated / KINOMEscan: ABL1-nonphosphorylated / KINOMEscan: ABL1-phosphorylated / KINOMEscan: ACVR2A / KINOMEscan: ACVR2B / KINOMEscan: ADCK3 / KINOMEscan: ADCK4 / KINOMEscan: AKT1 / KINOMEscan: AKT3 / KINOMEscan: ALK / KINOMEscan: ARK5 / KINOMEscan: AURKA / KINOMEscan: AURKC / KINOMEscan: BIKE / KINOMEscan: BMPR1A / KINOMEscan: BMPR1B / KINOMEscan: BMX / KINOMEscan: BRK / KINOMEscan: BRSK1 / KINOMEscan: BRSK2 / KINOMEscan: CAMK1 / KINOMEscan: CAMK1D / KINOMEscan: CAMK1G / KINOMEscan: CAMK2A / KINOMEscan: CAMK2B / KINOMEscan: AAK1 / KINOMEscan: CAMK2D / KINOMEscan: CAMK2G / KINOMEscan: ABL1(F317I)-nonphosphorylated / KINOMEscan: ABL1(F317I)-phosphorylated / KINOMEscan: ABL1(F317L)-nonphosphorylated: unit: % Ctrl
Conditions in all cases: Compound Concentration 10 µM
[1] = biological target: T1, panel of 442 kinases (Homo sapiens, UniProt Q9UQB9)
T1 construct: purchased KINOMEscan
T1 sequence (Q9UQB9 1-309): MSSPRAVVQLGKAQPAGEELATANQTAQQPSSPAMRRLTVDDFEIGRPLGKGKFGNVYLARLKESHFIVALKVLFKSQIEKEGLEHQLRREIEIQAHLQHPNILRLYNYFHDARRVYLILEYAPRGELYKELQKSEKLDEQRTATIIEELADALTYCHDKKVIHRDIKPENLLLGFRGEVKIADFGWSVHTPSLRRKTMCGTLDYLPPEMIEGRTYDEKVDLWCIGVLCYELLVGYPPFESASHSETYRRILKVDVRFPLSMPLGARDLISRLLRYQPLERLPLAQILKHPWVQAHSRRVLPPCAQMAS
Description: (§1) We assessed the selectivity of members of this scaffold using the KINOMEscan methodology across a near comprehensive panel of 442 kinases [[18,27]].

[2] = biological target: T2, panel of 442 kinases (Homo sapiens, UniProt P10721, D816V)
T2 construct: purchased KINOMEscan
Description: as §1

[3] = biological target: T3, panel of 442 kinases (Homo sapiens, UniProt P00533, T790M)
T3 construct: purchased KINOMEscan
Description: as §1

T3 sequence (P00533 25-1210 T790M): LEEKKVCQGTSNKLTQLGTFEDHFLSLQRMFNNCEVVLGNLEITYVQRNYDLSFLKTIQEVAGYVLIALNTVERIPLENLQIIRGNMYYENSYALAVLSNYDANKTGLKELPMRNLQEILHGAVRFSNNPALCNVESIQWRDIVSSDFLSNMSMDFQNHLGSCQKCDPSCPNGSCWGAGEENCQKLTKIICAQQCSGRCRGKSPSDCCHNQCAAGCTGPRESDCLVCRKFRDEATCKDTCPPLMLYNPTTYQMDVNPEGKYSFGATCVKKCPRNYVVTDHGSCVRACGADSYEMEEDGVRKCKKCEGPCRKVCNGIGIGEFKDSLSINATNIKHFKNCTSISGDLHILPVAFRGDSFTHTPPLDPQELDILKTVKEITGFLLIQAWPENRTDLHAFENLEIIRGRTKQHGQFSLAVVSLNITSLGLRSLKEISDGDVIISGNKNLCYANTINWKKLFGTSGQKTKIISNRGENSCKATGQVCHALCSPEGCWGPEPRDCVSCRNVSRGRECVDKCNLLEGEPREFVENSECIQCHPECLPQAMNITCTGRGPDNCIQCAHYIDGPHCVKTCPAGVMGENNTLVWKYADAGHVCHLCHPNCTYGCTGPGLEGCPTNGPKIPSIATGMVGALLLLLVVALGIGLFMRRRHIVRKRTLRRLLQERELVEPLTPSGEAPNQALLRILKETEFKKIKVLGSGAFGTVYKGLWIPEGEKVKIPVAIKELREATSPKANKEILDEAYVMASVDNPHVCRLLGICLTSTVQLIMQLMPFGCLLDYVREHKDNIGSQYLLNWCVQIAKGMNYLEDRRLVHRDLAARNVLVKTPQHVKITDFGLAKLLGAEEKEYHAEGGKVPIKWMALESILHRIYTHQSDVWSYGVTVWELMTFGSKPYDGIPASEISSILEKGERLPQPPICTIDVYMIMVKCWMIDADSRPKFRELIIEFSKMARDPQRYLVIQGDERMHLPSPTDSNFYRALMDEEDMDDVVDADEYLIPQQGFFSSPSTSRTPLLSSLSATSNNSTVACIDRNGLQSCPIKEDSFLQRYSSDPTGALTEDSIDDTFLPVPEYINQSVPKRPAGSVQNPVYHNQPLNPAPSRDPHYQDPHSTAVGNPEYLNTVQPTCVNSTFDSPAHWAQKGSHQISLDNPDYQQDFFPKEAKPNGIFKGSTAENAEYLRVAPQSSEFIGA
T2 sequence (P10721 26-976 D816V): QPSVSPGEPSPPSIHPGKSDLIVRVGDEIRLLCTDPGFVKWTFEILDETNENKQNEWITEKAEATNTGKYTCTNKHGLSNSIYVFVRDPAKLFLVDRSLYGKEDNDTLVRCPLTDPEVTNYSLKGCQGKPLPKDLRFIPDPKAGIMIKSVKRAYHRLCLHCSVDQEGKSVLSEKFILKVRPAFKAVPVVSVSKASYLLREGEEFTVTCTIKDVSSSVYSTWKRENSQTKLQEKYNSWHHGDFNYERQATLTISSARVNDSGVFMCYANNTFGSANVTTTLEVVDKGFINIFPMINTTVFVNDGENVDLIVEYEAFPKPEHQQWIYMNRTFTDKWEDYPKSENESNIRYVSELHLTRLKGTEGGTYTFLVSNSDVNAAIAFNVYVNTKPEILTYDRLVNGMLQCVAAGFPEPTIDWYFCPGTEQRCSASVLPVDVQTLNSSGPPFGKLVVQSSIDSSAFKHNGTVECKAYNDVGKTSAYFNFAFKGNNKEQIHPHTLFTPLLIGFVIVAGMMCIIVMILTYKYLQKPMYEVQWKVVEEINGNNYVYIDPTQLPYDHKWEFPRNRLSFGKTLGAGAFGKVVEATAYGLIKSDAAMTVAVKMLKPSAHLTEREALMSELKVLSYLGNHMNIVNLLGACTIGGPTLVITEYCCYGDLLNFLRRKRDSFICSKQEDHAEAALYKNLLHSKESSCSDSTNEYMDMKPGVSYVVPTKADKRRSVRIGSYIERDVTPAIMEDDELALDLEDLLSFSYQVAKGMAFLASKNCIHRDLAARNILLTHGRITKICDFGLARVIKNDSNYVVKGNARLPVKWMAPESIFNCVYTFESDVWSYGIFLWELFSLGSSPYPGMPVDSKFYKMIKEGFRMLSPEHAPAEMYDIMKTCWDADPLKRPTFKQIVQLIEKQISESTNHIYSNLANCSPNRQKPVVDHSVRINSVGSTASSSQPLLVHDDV

SMILES: COc1cc(C(=O)N2CCC(N3CCN(C)CC3)CC2)ccc1Nc1ncc2c(n1)N(C1CCCC1)c1ccccc1C(=O)N2C [Compound 25, 11-cyclopentyl-2-((2-methoxy-4-(4-(4-methylpiperazin-1-yl)piperidine-1-carbonyl)phenyl)amino)-5-methyl-5H-benzo[e]pyrimido[5,4-b][1,4]diazepin-6(11H)-one]
- KINOMEscan: AURKC [1]: 38
- KINOMEscan: KIT(D816V) [2]: 92
- KINOMEscan: EGFR(T790M) [3]: 89

SMILES: CCOc1cc(C(=O)N2CCC(N3CCN(C)CC3)CC2)ccc1Nc1ncc2c(n1)N(C1CCCC1)c1ccccc1C(=O)N2C [Compound 26]
- KINOMEscan: AURKC [1]: 66
- KINOMEscan: KIT(D816V) [2]: 96
- KINOMEscan: EGFR(T790M) [3]: 100

SMILES: COc1cc(C(=O)N2CCC(N3CCN(C)CC3)CC2)ccc1Nc1ncc2c(n1)N1CCc3cccc(c31)C(=O)N2C [Compound 24]
- KINOMEscan: AURKC [1]: 50
- KINOMEscan: EGFR(T790M) [3]: 76

SMILES: COc1cc(C(=O)N2CCC(N3CCN(C)CC3)CC2)ccc1Nc1ncc2c(n1)N(C)c1ccccc1C(=O)N2C [15 (LRRK2-IN-1)]
- KINOMEscan: AURKC [1]: 50
- KINOMEscan: KIT(D816V) [2]: 72
- KINOMEscan: EGFR(T790M) [3]: 88
